# Assay results taken from ChEMBL document CHEMBL3885861, “Open TG-GATES”.
# Species on record: Rattus norvegicus
# Assay: Open TG-GATES - Regimen: Single
# Assay type: toxicity, organism-based, Sprague-Dawley
# Parameters: regimen Single, gender Male, age 6 weeks
# Conditions: in vivo, po, 30 mg/kg, route gavage, dose level High; for APTT / Bas / Eos / Fbg / Hb / Ht / Lym / MCH / MCHC / Mono / Neu / Plat / RBC / Ret / WBC: tissue Blood; for KIDNEY_L / KIDNEY_R / KIDNEY_TOTAL: tissue Kidney; for LIVER: tissue Liver; for ALP / ALT / AST / BUN / CRE / Ca / Cl / DBIL / GLC / IP / K / LDH / Na / PL / RALB / TBIL / TC / TG / TP / gamma-GTP: tissue Plasma
smiles,measurement,setting,value
O=C(CCCN1CCC(O)(c2ccc(Cl)cc2)CC1)c1ccc(F)cc1 [HALOPERIDOL],TERMINAL_BW,3 h,205 g
same,APTT,3 h,17.2 s
same,Bas,3 h,0%
same,Eos,3 h,0.2%
same,Fbg,3 h,207.6 mg/dL
same,Hb,3 h,12.8 g/dL
same,Ht,3 h,38.4%
same,Lym,3 h,70.4%
same,MCH,3 h,21.5 pg
same,MCHC,3 h,33.3%
same,Mono,3 h,6%
same,Neu,3 h,23.4%
same,Plat,3 h,97 x10_4/uL
same,RBC,3 h,593.6 x10_4/ul
same,Ret,3 h,8.9%
same,WBC,3 h,57.7 x10_2/uL
same,KIDNEY_L,3 h,0.9 g
same,KIDNEY_R,3 h,0.9 g
same,KIDNEY_TOTAL,3 h,1.9 g
same,LIVER,3 h,9.5 g
same,ALP,3 h,676.8 IU/L
same,ALT,3 h,31.4 IU/L
same,AST,3 h,52 IU/L
same,BUN,3 h,12.2 mg/dL
same,CRE,3 h,0.5 mg/dL
same,Ca,3 h,10.7 mg/dL
same,Cl,3 h,108.8 meq/L
same,DBIL,3 h,0.018 mg/dL
same,GLC,3 h,222.8 mg/dL
same,IP,3 h,10.5 mg/dL
same,K,3 h,4.4 meq/L
same,LDH,3 h,166.8 IU/L
same,Na,3 h,140.8 meq/L
same,PL,3 h,157.6 mg/dL
same,RALB,3 h,3.7 g/dL
same,TBIL,3 h,0.3 mg/dL
same,TC,3 h,92.2 mg/dL
same,TG,3 h,34.6 mg/dL
same,TP,3 h,5.6 g/dL
same,gamma-GTP,3 h,1.4 IU/L
same,TERMINAL_BW,6 h,194.4 g
same,APTT,6 h,17.2 s
same,Bas,6 h,0%
same,Eos,6 h,0.4%
same,Fbg,6 h,198.5 mg/dL
same,Hb,6 h,13.9 g/dL
same,Ht,6 h,41.3%
same,Lym,6 h,72.6%
same,MCH,6 h,21.4 pg
same,MCHC,6 h,33.7%
same,Mono,6 h,4.4%
same,Neu,6 h,22.6%
same,Plat,6 h,110.6 x10_4/uL
same,RBC,6 h,647.2 x10_4/ul
same,Ret,6 h,9.3%
same,WBC,6 h,75.5 x10_2/uL
same,KIDNEY_L,6 h,0.9 g
same,KIDNEY_R,6 h,0.9 g
same,KIDNEY_TOTAL,6 h,1.8 g
same,LIVER,6 h,8.9 g
same,ALP,6 h,742.6 IU/L
same,ALT,6 h,30.6 IU/L
same,AST,6 h,59.8 IU/L
same,BUN,6 h,9.2 mg/dL
same,CRE,6 h,0.5 mg/dL
same,Ca,6 h,10.1 mg/dL
same,Cl,6 h,108.2 meq/L
same,DBIL,6 h,0.036 mg/dL
same,GLC,6 h,215.6 mg/dL
same,IP,6 h,10.1 mg/dL
same,K,6 h,4.6 meq/L
same,LDH,6 h,179.8 IU/L
same,Na,6 h,140 meq/L
same,PL,6 h,133.6 mg/dL
same,RALB,6 h,3.6 g/dL
same,TBIL,6 h,0.3 mg/dL
same,TC,6 h,77.8 mg/dL
same,TG,6 h,20 mg/dL
same,TP,6 h,5.5 g/dL
same,gamma-GTP,6 h,1.2 IU/L
same,TERMINAL_BW,9 h,194.2 g
same,APTT,9 h,16.9 s
same,Bas,9 h,0%
same,Eos,9 h,1.4%
same,Fbg,9 h,216 mg/dL
same,Hb,9 h,13.6 g/dL
same,Ht,9 h,40.7%
same,Lym,9 h,69%
same,MCH,9 h,21.9 pg
same,MCHC,9 h,33.4%
same,Mono,9 h,5.6%
same,Neu,9 h,24%
same,Plat,9 h,104 x10_4/uL
same,RBC,9 h,623 x10_4/ul
same,Ret,9 h,8.6%
same,WBC,9 h,59.3 x10_2/uL
same,KIDNEY_L,9 h,0.9 g
same,KIDNEY_R,9 h,0.9 g
same,KIDNEY_TOTAL,9 h,1.8 g
same,LIVER,9 h,8.3 g
same,ALP,9 h,898.8 IU/L
same,ALT,9 h,26.8 IU/L
same,AST,9 h,53.2 IU/L
same,BUN,9 h,10.8 mg/dL
same,CRE,9 h,0.5 mg/dL
same,Ca,9 h,9.9 mg/dL
same,Cl,9 h,108.8 meq/L
same,DBIL,9 h,0.012 mg/dL
same,GLC,9 h,201.2 mg/dL
same,IP,9 h,10.8 mg/dL
same,K,9 h,4.8 meq/L
same,LDH,9 h,180.8 IU/L
same,Na,9 h,140.6 meq/L
same,PL,9 h,137.2 mg/dL
same,RALB,9 h,3.9 g/dL
same,TBIL,9 h,0.3 mg/dL
same,TC,9 h,75.8 mg/dL
same,TG,9 h,21.4 mg/dL
same,TP,9 h,5.6 g/dL
same,gamma-GTP,9 h,1.2 IU/L
same,TERMINAL_BW,24 h,194.5 g
same,APTT,24 h,15.2 s
same,Bas,24 h,0%
same,Eos,24 h,0.6%
same,Fbg,24 h,200.2 mg/dL
same,Hb,24 h,14.5 g/dL
same,Ht,24 h,43.1%
same,Lym,24 h,80.8%
same,MCH,24 h,21.4 pg
same,MCHC,24 h,33.7%
same,Mono,24 h,5.8%
same,Neu,24 h,12.8%
same,Plat,24 h,118.2 x10_4/uL
same,RBC,24 h,680 x10_4/ul
same,Ret,24 h,7.7%
same,WBC,24 h,59.7 x10_2/uL
same,KIDNEY_L,24 h,0.9 g
same,KIDNEY_R,24 h,0.9 g
same,KIDNEY_TOTAL,24 h,1.8 g
same,LIVER,24 h,8.9 g
same,ALP,24 h,744.8 IU/L
same,ALT,24 h,30.2 IU/L
same,AST,24 h,67.8 IU/L
same,BUN,24 h,28.6 mg/dL
same,CRE,24 h,0.5 mg/dL
same,Ca,24 h,11 mg/dL
same,Cl,24 h,105 meq/L
same,DBIL,24 h,0.044 mg/dL
same,GLC,24 h,181 mg/dL
same,IP,24 h,9.7 mg/dL
same,K,24 h,5.3 meq/L
same,LDH,24 h,216.4 IU/L
same,Na,24 h,140 meq/L
same,PL,24 h,142.8 mg/dL
same,RALB,24 h,4.1 g/dL
same,TBIL,24 h,0.4 mg/dL
same,TC,24 h,77 mg/dL
same,TG,24 h,95 mg/dL
same,TP,24 h,6.1 g/dL
same,gamma-GTP,24 h,1 IU/L
